The values that follow come from ChEMBL document CHEMBL1938396, “Synthesis of new praziquantel analogues: potential candidates for the treatment of schistosomiasis” (2012).

This test has as its system Schistosoma mansoni. In words: Antischistosomal activity against Schistosoma mansoni assessed as worm survival incubated for overnight followed by drug washout measured on day 7. The class given is functional.
As for `COc1cc2c(cc1OC)C1CN(S(=O)(=O)c3ccc(C)cc3)CC(=O)N1CC2` (stereo not given), the LC90 is more than 100 µM. Then `O=C1C(=O)N2CCc3c(n(Cc4ccccc4)c4ccccc34)C2CN1C(=O)c1ccc(C(F)(F)F)cc1` (stereo not given), with more than 100 µM; and `O=C(c1ccc(C(F)(F)F)cc1)N1CC(=O)N2CCc3c([nH]c4ccccc34)C2C1` (stereo not given), with 50 µM; and `O=C(C1CCCC1)N1CC(=O)N2CCc3ccccc3C2C1` (stereo not given), with 10 µM. Under `O=C1C(=O)N2CCc3c(n(Cc4ccccc4)c4ccccc34)C2CN1C(=O)C1CCCCC1` (stereo not given) stands more than 100 µM; under `O=C1C(=O)N2CCc3ccccc3C2CN1C(=O)c1ccc(C(F)(F)F)cc1` (stereo not given), more than 100 µM; under `O=C(CC1CCCCC1)N1CC2c3ccccc3CCN2C(=O)C1=O` (stereo not given), more than 100 µM. Then `O=C(C1CCCCC1)N1CC(=O)N2CCc3c(n(Cc4ccccc4)c4ccccc34)C2C1` (stereo not given), with 25 µM. Turning to `O=C(C1CCCCC1)N1CC(=O)N2CCc3ccccc3C2C1` (stereo not given) [PRAZIQUANTEL], the LC90 was determined as 3 µM. Under `COc1cc2c(cc1OC)C1CN(C(=O)c3ccc(C(F)(F)F)cc3)CC(=O)N1CC2` (stereo not given) stands more than 100 µM; under `O=C1C(=O)N2CCc3ccccc3C2CN1C(=O)C1CCCCC1` (stereo not given), more than 100 µM; under `O=C1C(=O)N2CCc3c(n(Cc4ccccc4)c4ccccc34)C2CN1C(=O)C1CCCC1` (stereo not given), more than 100 µM.

Consider `O=C(CC1CCCCC1)N1CC2c3c(c4ccccc4n3Cc3ccccc3)CCN2C(=O)C1=O` (stereo not given), for which the LC90 was more than 100 µM. Then `O=C(c1ccc(C(F)(F)F)cc1)N1CC(=O)N2CCc3c(n(Cc4ccccc4)c4ccccc34)C2C1` (stereo not given), with more than 100 µM. Then `Cc1ccc(S(=O)(=O)N2CC(=O)N3CCc4ccccc4C3C2)cc1` (stereo not given), with more than 10 µM; and `O=C(C1CCCCC1)N1CC(=O)N2CCc3c([nH]c4ccccc34)C2C1` (stereo not given), with 25 µM; and `COc1cc2c(cc1OC)C1CN(C(=O)C3CCCCC3)CC(=O)N1CC2` (stereo not given), with 50 µM. Then `O=C1C(=O)N2CCc3ccccc3C2CN1C(=O)C1CCCC1` (stereo not given), with more than 100 µM. On to `Cc1ccc(S(=O)(=O)N2CC3c4ccccc4CCN3C(=O)C2=O)cc1` (stereo not given), for which the LC90 is more than 100 µM.

Regarding `COc1cc2c(cc1OC)C1CN(C(=O)C3CCCC3)CC(=O)N1CC2` (stereo not given), the LC90 turned out to be 25 µM.
